Test results reported in publication PMC3750255, “Inhibition of Mycoplasma pneumoniae growth by FDA-approved anticancer and antiviral nucleoside and nucleobase analogs” (BMC Microbiology, 2013).
≈ marks a conversion by molar mass, not a printed value. Where “and” joins values, the source holds several entries; their conditions need not be identical. Equal entries are not always repeated. Where two headings read alike, the source gives them in different places.

How the values were obtained:
[1] = test system: M. pneumoniae thyA mutant (lacking TS activity); assay: microbe, parasite or virus in culture; format: cell-based, Mycoplasma pneumoniae; settings: for MIC: Mycoplasmoides pneumoniae, read-out: thyA mutant MIC
Method: (§1) A series dilution of each compound in Mycoplasma growth medium was added to Mpn cultures in 96-well plates. The plates were sealed and incubated at 37°C. Mpn growth was monitored by using growth index value e.g. the ratio of absorbance at 450 nm and 560 nm of the culture medium. Thirty nucleoside and nucleobase analogs and a nucleoside transporter inhibitor were included, and two Mpn strains, wild type and a thyA mutant (lacking TS activity), were used.
(§2) Nucleoside and nucleobase analogs were dissolved in dimethyl sulfoxide (DMSO) as stock solutions and diluted with Mpn culture medium to the desired concentration immediately prior to use.
(§3) Mpn laboratory strain M129 wild type and a thyA mutant strain [31] were used in this study. Mpn was cultured at 37°C in a CO2 incubator using 75 cm^2 tissue culture flasks containing 50 ml Hayflick’s medium, and harvested at day 4 when the medium color change was observed. The cells were harvested and the pellet was resuspended in 6 ml fresh medium and the cfu/ml was determined by serial dilution (10-fold) and plating on broth agar plate. Colonies was counted and cfu/ml was calculated.
(§4) Inhibition studies were performed in 96-well plates containing 200 μl Mpn culture (approximately 10^6 cfu ml^-1) in Hayflick’s medium and 200 μl each compound in series dilutions (2-fold) with the growth medium, with three to four replicas. The plates were sealed with clear adhesive sheets and incubated at 37°C incubator. Absorbance ratio at 450 nm and 560 nm was used as Mpn growth index, which was measured daily, and by visual detection for at least 8 days, as previously described. […] The MICs (minimal inhibitory concentration required to inhibit Mpn growth to 90%) were determined as the lowest concentration at which the growth index was ≈ 10% of the control values (at the time when the control culture medium color turned yellow), essentially as described.

[2] = test system: M. pneumoniae wild type (laboratory strain M129); assay: Mpn growth inhibition in 96-well plates (growth index A450/A560), wild type strain; format: cell-based, Mycoplasma pneumoniae; settings: for MIC: Mycoplasmoides pneumoniae
Method: as §1, §2, §3, §4

Mpn wild type cells = assay: Uptake and metabolism of tritium labelled natural nucleoside and nucleobases in the presence of analogs; format: cell-based, Mycoplasma pneumoniae; settings: 10 μM analog, 70 hours; for [3H]-Ade Total uptake / [3H]-Gua Total uptake / [3H]-Hx Total uptake / [3H]-Ura Total uptake / [3H]-dT Total uptake: 37°C, radioactivity in cells / total added; for [3H]-Ade Incorporation / [3H]-Gua Incorporation / [3H]-Hx Incorporation / [3H]-Ura Incorporation / [3H]-dT Incorporation: acid insoluble fraction / total in cells
Method: The cells were harvested and analyzed essentially as described. Analogs used were dipyridamole, 6-thioguanine (6-TG), trifluorothymidine (TFT), gemcitabine (dFdC) and 5-fluorodeoxyuridine (5FdU). Total uptake is the percent of radioactivity recovered in the cells divided by total radioactivity added to the growth medium. Percent of acid insoluble (radioactivity found in DNA and RNA) was also calculated. These experiments were done more than three times and data are given as mean ± SD.

Mpn HPRT [3] = biological target: T1, Mpn HPRT (Mycoplasmoides pneumoniae, UniProt P75119); assay: biochemical
T1 sequence (P75119 1-175): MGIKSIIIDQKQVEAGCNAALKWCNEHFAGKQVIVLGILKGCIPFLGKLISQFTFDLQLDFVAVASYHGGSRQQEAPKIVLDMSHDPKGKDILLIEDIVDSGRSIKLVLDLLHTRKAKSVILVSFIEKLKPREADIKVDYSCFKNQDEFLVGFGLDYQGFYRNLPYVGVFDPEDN
Method: (§5) The reaction was initiated by addition of the enzyme, and at 0, 5, 10, and 15 min intervals, 10 μl reaction mixture was withdrawn and spotted onto the DE81 filter paper and dried. The unreacted substrate was washed and the products were eluted and counted in a liquid scintillation counter. With [^3H]-Gua as substrate the reaction (in a total of 25 μl) was initiated by addition of the enzyme (10 μl), incubated at 37°C for 2 min, stopped by addition of 1 M HCl (10 μl), and placed immediately on ice. After neutralization, 15 μl of the mixture was spotted onto the DE81-filter paper. The filters were then washed, and the products were eluted and counted by liquid scintillation.

human HPRT = biological target: T2, human HPRT (Homo sapiens, UniProt P00492); assay: HPRT inhibition, DE-81 filter paper assay; format: biochemical
T2 construct: made in house
T2 sequence (P00492 1-218): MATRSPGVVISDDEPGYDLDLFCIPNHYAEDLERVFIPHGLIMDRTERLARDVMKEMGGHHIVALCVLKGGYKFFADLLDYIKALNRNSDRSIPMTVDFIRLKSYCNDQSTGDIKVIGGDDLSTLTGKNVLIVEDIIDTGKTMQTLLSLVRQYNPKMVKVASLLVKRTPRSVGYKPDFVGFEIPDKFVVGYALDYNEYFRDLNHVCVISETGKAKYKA
Method: as §5

Mpn HPRT [4] = biological target: T1, Mpn HPRT; settings: as substrate of Mpn HPRT
Method: Data are from at least three independent measurements and are presented as mean ± standard deviation (SD).
as §5

[5] = strain not specified, 90% growth inhibition
[6] = substrate hypoxanthine, 10 μM [3H]-hypoxanthine

Compound: Cc1cn([C@H]2C[C@H](N=[N+]=[N-])[C@@H](CO)O2)c(=O)[nH]c1=O [Zidovudine]
- MIC [1]: 7.8 µg/mL (≈ 29.2 µM)
- MIC ([2]; read-out: Wild type MIC): 7.8 µg/mL (≈ 29.2 µM)

Compound: Nc1ccn([C@@H]2O[C@H](CO)[C@@H](O)C2(F)F)c(=O)n1 [Gemcitabine (dFdC), Gemcitabine]
- MIC [1]: 2.4 µg/mL (≈ 9.12 µM)
- [3H]-Ade Total uptake (Mpn wild type cells): 0.41±0.08%
- [3H]-Gua Total uptake (Mpn wild type cells): 0.10±0.02%
- [3H]-Hx Total uptake (Mpn wild type cells): 0.009±0.0002%
- [3H]-Ura Total uptake (Mpn wild type cells): 0.12±0.001%
- [3H]-dT Total uptake (Mpn wild type cells): 5.2±0.4%
- [3H]-Ade Incorporation (Mpn wild type cells): 39±8%
- [3H]-Gua Incorporation (Mpn wild type cells): 90±6%
- [3H]-Hx Incorporation (Mpn wild type cells): 67±7%
- [3H]-Ura Incorporation (Mpn wild type cells): 26±6%
- [3H]-dT Incorporation (Mpn wild type cells): 96.7±1.1%
- MIC ([2]; read-out: MIC (Mpn growth), strain not specified, 90% growth inhibition): ~2.5 µg/mL (≈ 9.5 µM)
- MIC ([2]; read-out: Wild type MIC): 2.4 µg/mL (≈ 9.12 µM)
- MIC (Mpn growth) [2, 5]: approximately 2 μg ml^-1

Compound: Cn1c(=O)c2[nH]cnc2n(C)c1=O [Theophylline]
- MIC [1]: > 500 µg/mL
- IC50 (Mpn HPRT [3]; [6]): > 4000 µM
- MIC ([2]; read-out: Wild type MIC): > 500 µg/mL
- IC50 (human HPRT): 1580 ± 134 µM

Compound: Nc1nc2c(ncn2COCCO)c(=O)[nH]1 [Acyclovir]
- MIC [1]: 15.6 µg/mL (≈ 69.3 µM)
- MIC ([2]; read-out: Wild type MIC): 15.6 µg/mL (≈ 69.3 µM)

Compound: COc1c(C)c2c(c(O)c1C/C=C(\C)CCC(=O)OCCN1CCOCC1)C(=O)OC2 [Mycophenolate mofetil]
- MIC [1]: 250 µg/mL (≈ 577 µM)
- MIC ([2]; read-out: Wild type MIC): 250 µg/mL (≈ 577 µM)

Compound: Nc1ncnc2c1ncn2[C@@H]1O[C@H](CO)[C@@H](O)[C@@H]1O [Arabinosyl adenine]
- MIC [1]: > 500 µg/mL
- MIC ([2]; minimal concentration producing 90% inhibition, wild type Mpn, read-out: Wild type MIC): > 500 µg/mL

Compound: Nc1nc2nc[nH]c2c(=O)[nH]1 [Gua, guanine]
- Hill coefficient (Mpn HPRT [4]): 3.5
- Vmax (Mpn HPRT [4]): 2.7 ± 0.1 µmol/min/mg
- S0.5 (Mpn HPRT [4]; Hill equation): 107.6 ± 6.2 µM

Compound: Nc1ccn(C[C@@H](CO)OCP(=O)(O)O)c(=O)n1 [Cidofovir]
- MIC [1]: 31.2 µg/mL (≈ 112 µM)
- MIC ([2]; read-out: Wild type MIC): 31.2 µg/mL (≈ 112 µM)

Compound: O=c1[nH]c(=O)n([C@H]2C[C@H](O)[C@@H](CO)O2)cc1I [5-iododeoxyuridine]
- MIC [1]: > 500 µg/mL
- MIC ([2]; read-out: Wild type MIC): 15.6 µg/mL (≈ 44.1 µM)
- Inhibition of wild type Mpn growth (in words) ([2]; wild type Mpn): only inhibited the wild type Mpn growth

Compound: Nc1nc(F)nc2c1ncn2[C@@H]1O[C@H](COP(=O)(O)O)[C@@H](O)[C@@H]1O [Fludarabine phosphate]
- MIC [1]: > 500 µg/mL
- MIC ([2]; read-out: Wild type MIC): > 500 µg/mL

Compound: CC(C)[C@H](N)C(=O)OCCOCn1cnc2c(=O)[nH]c(N)nc21 [Valacyclovir]
- MIC [1]: > 500 µg/mL
- MIC ([2]; read-out: Wild type MIC): > 500 µg/mL
- Inhibition of Mpn growth (in words) ([2]; strain not specified): did not inhibit Mpn growth

Compound: Nc1nc(O)c2ncn(COC(CO)CO)c2n1 [Gancyclovir]
- MIC [1]: > 500 µg/mL
- MIC ([2]; read-out: Wild type MIC): 7.8 µg/mL (≈ 30.6 µM)
- Inhibition of wild type Mpn growth (in words) ([2]; wild type Mpn): inhibited wild type Mpn

Compound: Nc1nc2nc[nH]c2c(=S)[nH]1 [6-thioguanine (6-TG), 6-thioguanine]
- MIC [1]: 0.2 µg/mL (≈ 1.2 µM)
- [3H]-Ade Total uptake (Mpn wild type cells): 0.66±0.1%
- [3H]-Gua Total uptake (Mpn wild type cells): 0.080±0.002%
- [3H]-Hx Total uptake (Mpn wild type cells): 0.005 ± 0.0004%
- [3H]-Ura Total uptake (Mpn wild type cells): 0.21±0.003%
- [3H]-dT Total uptake (Mpn wild type cells): 7.9±0.6%
- [3H]-Ade Incorporation (Mpn wild type cells): 46±3%
- [3H]-Gua Incorporation (Mpn wild type cells): 67±3%
- [3H]-Hx Incorporation (Mpn wild type cells): 43±6%
- [3H]-Ura Incorporation (Mpn wild type cells): 39±8%
- [3H]-dT Incorporation (Mpn wild type cells): 97.4±0.7%
- IC50 (Mpn HPRT [3]; substrate guanine, 10 μM [3H]-guanine): 3.2 µM and 3.16 µM
- IC50 (Mpn HPRT [3]; [6]): 3.5 ± 0.5 µM
- MIC ([2]; read-out: Wild type MIC): 0.2 µg/mL (≈ 1.2 µM)
- MIC (Mpn growth) [2, 5]: 0.20 µg/mL (≈ 1.2 µM)
- IC50 (human HPRT; 10 μM [3H]-guanine, read-out: IC50 Human HPRT, substrate guanine): 39.8 ± 4 µM
- IC50 (human HPRT; IC50 Human HPRT, substrate hypoxanthine, 10 μM [3H]-hypoxanthine): 20.5 ± 6.5 µM

Compound: CC(C)(C)C(=O)OCOP(=O)(COCCn1cnc2c(N)ncnc21)OCOC(=O)C(C)(C)C [Adefovir depivoxil]
- thyA mutant MIC ([1]; minimal concentration producing 90% inhibition, thyA mutant Mpn): > 500 µg/mL
- Wild type MIC ([2]; minimal concentration producing 90% inhibition, wild type Mpn): > 500 µg/mL

Compound: OCCN(CCO)c1nc(N2CCCCC2)c2nc(N(CCO)CCO)nc(N3CCCCC3)c2n1 [Dipyridamole]
- MIC [1]: 1.9 µg/mL (≈ 3.77 µM)
- [3H]-Ade Total uptake (Mpn wild type cells): 0.67±0.1%
- [3H]-Gua Total uptake (Mpn wild type cells): 0.09±0.002%
- [3H]-Hx Total uptake (Mpn wild type cells): 0.008± 0.001%
- [3H]-Ura Total uptake (Mpn wild type cells): 0.20±0.003%
- [3H]-dT Total uptake (Mpn wild type cells): 7.2±1.1%
- [3H]-Ade Incorporation (Mpn wild type cells): 47±1%
- [3H]-Gua Incorporation (Mpn wild type cells): 56±6%
- [3H]-Hx Incorporation (Mpn wild type cells): 44±3%
- [3H]-Ura Incorporation (Mpn wild type cells): 38±6%
- [3H]-dT Incorporation (Mpn wild type cells): 97.0±1.3%
- MIC ([2]; read-out: Wild type MIC): 1.9 µg/mL (≈ 3.77 µM)
- MIC (Mpn growth) [2, 5]: approximately 2 μg ml^-1
